Legend:
GBM4 cells = assay: GBM4 viability assay (Cell Titer Glo luminescence); type: cell-based; conditions: 72 h; human glioblastoma neurosphere cells GBM4, 3 days incubation at 37° C., inhibition of cell growth by Cell Titer Glo luminescence
Experimental: (§1) Cell culture medium was prepared from a NSA proliferation kit (Neurocult) and NeuroCult supplements (Stemcell Tech Cat. #05751) and treated with 20 μL of 10 μg/mL rh EGF, 10 μL of 10 μg/mL rh bFGF and 10 μL of 0.2% Heparin. In this medium, human glioblastoma cells were cultured in ultra-low attachment tissue culture flasks until 1×10^6 cells ml was achieved (GBM4 and GBM8 are distinct neuro sphere cell cultures derived from these human patient tissues). GBM4 and GBM8 cells were dissociated and 10 mL of media containing 4000 human glioblastoma cells per 90 uL were transferred to an ultra-low binding 96-well plate and incubated at 37° C. overnight. On the following day, 10 μL of a 1% DMSO solution of test compound in assay medium was added to wells containing the cell suspension and the mixture incubated at 37° C. for 3 days. At this time, the plate was removed from the incubator and allowed to reach room temperature. After about 30 minutes, 50 μL of Cell Titer Glo solution was added to each well and the plate shaken for 1 minute at low speed. After 10 minutes luminescence was recorded using a Tecan Safire2 reader.
(§2) Reduction in luminescence compared to DMSO only control wells was used to determine the percentage inhibition of cell growth. IC50s were calculated using the % inhibition of luminescence for serial dilutions of compounds fitted to a 4-parameter fit within the Prism (San Diego) curve fitting program.

GBM8 cells = assay: GBM8 viability assay (Cell Titer Glo luminescence); type: cell-based; conditions: 72 h; human glioblastoma neurosphere cells GBM8, 3 days incubation at 37° C., inhibition of cell growth by Cell Titer Glo luminescence; read-out: FBM8 (IC50)
Experimental: as §1, §2

SMILES	IC50 (GBM4 cells) [µM]	IC50 (GBM8 cells) [µM]
CCN1CCCC(Nc2cc(C)nc(NC(=N)N(C)c3ccc(Cl)c(Cl)c3)n2)C1 (stereo not drawn) [Compound 21, 2-[3-(3,4-dichlorophenyl)-3-methylguanidino]-4-[1-ethyl-3-piperidylamino]-6-methylpyrimidine]	10 to 30	> 30
CCN1CCC(Nc2cc(C)nc(NC(=N)Nc3ccc(Cl)c(Cl)c3)n2)CC1 [Compound 26, 2-[3-(3,4-dichlorophenyl)guanidino]-4-(1-ethyl-4-piperidylamino)-6-methylpyrimidine]	< 10	< 10
CCN1CCCC(Nc2cc(C)nc(NC(=N)Nc3ccc(Cl)c(Cl)c3)n2)C1 (racemic) [Compound 7, (±)-2-[3-(3,4-dichlorophenyl)guanidino]-4-(1-ethyl-3-piperidylamino)-6-methylpyrimidine]	< 10	< 10
CCN1CCC(Oc2cc(C)nc(NC(=N)Nc3ccc(Cl)c(Cl)c3)n2)CC1 [Compound 25, 1-(3,4-dichlorophenyl)-3-[4-(1-ethyl-4-piperidyloxy)-6-methyl-2-pyrimidinyl]-guanidine]	10 to 30	10 to 30
C/N=C(\Nc1ccc(Cl)c(Cl)c1)Nc1nc(C)cc(NCCCN(C)C)n1 [Compound 33, 1-{2-[3-(3,4-Dichlorophenyl)-2-methylguanidino]-6-methyl-4-pyrimidinylamino}-3-(dimethylamino)propane]		> 30
Cc1cc(NC2CCNCC2)nc(NC(=N)Nc2ccc(Cl)c(Cl)c2)n1 [Compound 9, 2-[3-(3,4-dichlorophenyl)guanidino]-6-methyl-4-(4-piperidylamino)pyrimidine]	> 30	> 30
Cc1cc(N[C@@H]2CCCNC2)nc(NC(=N)Nc2ccc(Cl)c(Cl)c2)n1 [Compound 11, (R)-1-(3,4-dichlorophenyl)-3-(4-methyl-6-(piperidin-3-ylamino)pyrimidin-2-yl)guanidine]	< 10	< 10
Cc1cc(NC2CCCCC2)nc(NC(=N)Nc2ccc(Cl)c(Cl)c2)n1 [Compound 15, 4-(cyclohexylamino)-2-[3-(3,4-dichlorophenyl)guanidino]-6-methylpyrimidine]	< 10	< 10
Cc1cc(NCCCN(C)C)nc(N/C(=N/C#N)Nc2ccc(Cl)c(Cl)c2)n1 [Compound 32, 1-(3,4-Dichlorophenyl)-3-{4-[3-(dimethylamino)propylamino]-6-methyl-2-pyrimidinyl}-2-guanidinecarbonitrile]		< 10
Cc1cc(Nc2cccnc2)nc(NC(=N)Nc2ccc(Cl)c(Cl)c2)n1 [Compound 14, 2-[3-(3,4-dichlorophenyl)guanidino]-6-methyl-4-(3-pyridylamino)pyrimidine]	< 10	< 10
Cc1cc(NC2CCOCC2)nc(NC(=N)Nc2ccc(Cl)c(Cl)c2)n1 [Compound 16, 2-[3-(3,4-dichlorophenyl)guanidino]-6-methyl-4-(tetrahydro-2H-pyran-4-ylamino)-pyrimidine]	10 to 30	< 10
Cc1cc(N2CCOCC2)nc(NC(=N)Nc2ccc(Cl)c(Cl)c2)n1 [Compound 29, 1-(3,4-dichlorophenyl)-3-(4-methyl-6-morpholino-2-pyrimidinyl)guanidine]	< 10	< 10
Cc1cc(Oc2ccncc2)nc(NC(=N)Nc2ccc(Cl)c(Cl)c2)n1 [Compound 8, 1-(3,4-dichlorophenyl)-3-[6-methyl-4-(4-pyridyloxy)-2-pyrimidinyl]guanidine]	> 30	> 30
Cc1cc(NCCCN(C)C)nc(/N=C(/Nc2ccc(Cl)c(Cl)c2)N(C)C)n1 [Compound 34, 1-{2-[3-(3,4-Dichlorophenyl)-1,1-dimethylguanidino]-6-methyl-4-pyrimidinylamino}-3-(dimethylamino)propane]		> 30
CCN1CCC[C@@H](Nc2cc(C)nc(NC(=N)Nc3ccc(Cl)c(Cl)c3)n2)C1 [Compound 12, 4-[(3R)-1-ethyl-3-piperidylamino]-2-[3-(3,4-dichlorophenyl)guanidino]-6-methyl-pyrimidine]	< 10	< 10
C/N=C(\Nc1ccc(Cl)c(Cl)c1)Nc1cc(C)cc(NCCCN(C)C)n1 [Compound 35, 1-{6-[3-(3,4-Dichlorophenyl)-2-methylguanidino]-4-methyl-2-pyridylamino}-3-(dimethylamino)propane]		10 to 30
Cc1cc(Oc2cccnc2)nc(NC(=N)Nc2ccc(Cl)c(Cl)c2)n1 [Compound 13, 1-(3,4-dichlorophenyl)-3-[6-methyl-4-(3-pyridyloxy)-2-pyrimidinyl]guanidine]	10 to 30	> 30
Cc1cc(OC2CCCNC2)nc(NC(=N)Nc2ccc(Cl)c(Cl)c2)n1 (stereo not drawn) [Compound 17, 1-(3,4-dichlorophenyl)-3-[6-methyl-4-(3-piperidyloxy)-2-pyrimidinyl]guanidine]	10 to 30	< 10
Cc1cc(N2CCN(C)CC2)nc(NC(=N)Nc2ccc(Cl)c(Cl)c2)n1 [Compound 27, 1-(3,4-dichlorophenyl)-3-[6-methyl-4-(4-methyl-1-piperazinyl)-2-pyrimidinyl]-guanidine]	10 to 30	< 10
CCN1CCC[C@H](Nc2cc(C)nc(NC(=N)Nc3ccc(Cl)c(Cl)c3)n2)C1 [Compound 24, (S)-1-(3,4-dichlorophenyl)-3-(4-(1-ethylpiperidin-3-ylamino)-6-methylpyrimidin-2-yl)guanidine]	< 10	< 10
Cc1cc(N[C@H]2CCCNC2)nc(NC(=N)Nc2ccc(Cl)c(Cl)c2)n1 [Compound 10, (5)-1-(3,4-dichlorophenyl)-3-(4-methyl-6-(piperidin-3-ylamino)pyrimidin-2-yl)guanidine]	< 10	< 10
Cc1cc(NCCCN(C)C)nc(NC(=S)Nc2ccc(Cl)c(Cl)c2)n1 [Compound 31a, 1-{2-[3-(3,4-Dichlorophenyl)thioureido]-6-methyl-4-pyrimidinylamino}-3-(dimethylamino)propane]		< 10
Cc1cc(N(C)C)nc(NC(=N)Nc2ccc(Cl)c(Cl)c2)n1 [Compound 28, (N-methyl{2-[3-(3,4-dichlorophenyl)guanidino]-6-methyl-4-pyrimidinyl}amino)-methane]	< 10	< 10
Cc1cc(/N=C(/Nc2ccc(Cl)c(Cl)c2)N(C)C)nc(NCCCN(C)C)c1 [Compound 39, 1-{6-[3-(3,4-Dichlorophenyl)-1,1-dimethylguanidino]-4-methyl-2-pyridylamino}-3-(dimethylamino)propane]		> 30

From patent US10227333B2, “Inhibition of OLIG2 activity” (Curtana Pharmaceuticals, Inc., priority 2015, dated 2019)
